Patent US5766871A, “Screening and characterization of glutaryl-7-aminocephalosporanic acid acylase” (priority 1996, dated 1998)

Experiments:
[1] = target: T1, GL-7-ACA acylase of P. nitroreducens ATCC 33634 (Pseudomonas nitroreducens, UniProt E0D5C2); assay: Substrate profile of GL-7-ACA acylase, whole cells of ATCC 33634; assay type: biochemical; conditions: for activity as substrate, in words: cells of ATCC 33634, compared with GL-7-ACA; for relative activity (percentage relative to the activity for GL7-ACA): whole cells of ATCC 33634, 0.2 g/l substrate, 37° C., 3 hr
T1 construct: periplasmic
T1 sequence (E0D5C2 24-556): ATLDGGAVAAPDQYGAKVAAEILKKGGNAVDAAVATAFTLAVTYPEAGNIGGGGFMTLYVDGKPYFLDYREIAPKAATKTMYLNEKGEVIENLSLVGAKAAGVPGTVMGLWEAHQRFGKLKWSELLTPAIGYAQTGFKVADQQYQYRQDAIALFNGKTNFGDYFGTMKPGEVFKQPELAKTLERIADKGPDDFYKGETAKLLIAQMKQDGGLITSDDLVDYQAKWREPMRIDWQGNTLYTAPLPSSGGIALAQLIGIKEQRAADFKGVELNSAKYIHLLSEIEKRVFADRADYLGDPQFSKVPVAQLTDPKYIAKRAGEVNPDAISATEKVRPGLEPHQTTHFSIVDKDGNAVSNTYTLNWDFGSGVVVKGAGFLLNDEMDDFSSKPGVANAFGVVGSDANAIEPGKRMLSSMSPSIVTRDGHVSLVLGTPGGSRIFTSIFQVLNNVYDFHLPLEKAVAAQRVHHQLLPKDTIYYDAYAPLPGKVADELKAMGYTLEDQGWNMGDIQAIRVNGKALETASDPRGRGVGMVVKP
T1 sequence (E0D5C2 25-556 partner): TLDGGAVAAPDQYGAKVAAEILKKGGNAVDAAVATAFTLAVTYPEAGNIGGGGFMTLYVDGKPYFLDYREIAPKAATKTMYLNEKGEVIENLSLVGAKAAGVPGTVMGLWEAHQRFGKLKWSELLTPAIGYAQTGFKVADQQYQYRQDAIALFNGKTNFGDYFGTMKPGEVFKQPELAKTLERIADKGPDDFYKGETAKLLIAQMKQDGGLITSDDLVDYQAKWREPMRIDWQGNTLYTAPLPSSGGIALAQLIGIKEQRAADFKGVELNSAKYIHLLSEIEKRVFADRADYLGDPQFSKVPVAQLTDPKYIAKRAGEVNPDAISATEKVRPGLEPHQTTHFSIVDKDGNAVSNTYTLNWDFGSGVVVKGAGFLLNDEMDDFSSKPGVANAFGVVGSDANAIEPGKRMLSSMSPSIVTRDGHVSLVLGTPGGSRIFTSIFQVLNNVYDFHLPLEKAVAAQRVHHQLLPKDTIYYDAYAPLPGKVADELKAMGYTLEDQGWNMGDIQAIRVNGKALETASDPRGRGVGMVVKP
Protocol: (§1) Colonies forming clear zones were cultivated in Nutrient Broth (Difco, Detroit, Mich.) and tested for GL-7-ACA acylase activity as described by Shibuya et al. (Agric. Biol. Chem. 45: 1561-1567, 1981). The whole-cell suspension of ATCC 33634 in 100 mM acetate buffer (pH 5.0) was used as the acylase source. One unit of the acylase activity was defined as the amount of enzyme that liberates 1 μmole of […] per min.
Cells of ATCC 33634 were used to convert GL-7-ACA and related compounds (Table 2). GL-7-ACA, GL-7-ADCA, and succinyl-7-ACA were prepared according to the method of Shibuya et al. (Agric. Biol. Chem. 45: 1561-1567, 1981).
^a The relative GL7-ACA acylase activity was presented as percentage
relative to the activity for GL7-ACA. Whole cells of ATCC 33634 were
incubated with 0.2 g/l of GL7-ACA, GL7-ADCA, succinyl 7ACA, or Ceph C at […]

[2] = target: T1, GL-7-ACA acylase of P. nitroreducens ATCC 33634; assay: Effect of various inhibitors on the acylase activity; assay type: biochemical
Protocol: It has been reported that the activity of GL-7-ACA acylases can be inhibited by their own products, e.g., 7-ACA and glutaric acid. Thus, the inhibitory effects of various compounds on the present acylase were tested (Table 4). The compounds were 7-ACA, glutaric acid, glutamate, succinyl-7-ACA, and Ceph C, all of which were used at 20 mM.

[3] = system: P. nitroreducens ATCC 33634; assay: Effect of composition of media on production of GL-7-ACA acylase; assay type: cell-based, Pseudomonas nitroreducens
Protocol: as §1
To obtain the optimal medium for P. nitroreducens ATCC 33634 cultivation, various media were tested according to the report of Nikolov and Danielsson (Enzyme Microbiol. Technol. 16: 1031-1036, 1994) (Table 1). The cultivation was carried out in 500 ml flasks containing 100 ml of media (Table 1) at 30° C. and 150 rpm for 24 hr. All media were adjusted to pH 7.5 before autoclaving. Yeast extract, casein, peptone, and meat extract were purchased from Difco Laboratories Inc. (Detroit, Mich.).

Row | Compound | activity as substrate, in words [1] | relative activity (percentage relative to the activity for GL7-ACA) [1] | other results
1 | CC(=O)OCC1=C(C(=O)O)N2C(=O)[C@@H](NC(=O)CCC(=O)O)[C@H]2SC1 [Succinyl-7ACA, succinyl-7-ACA] | No activity was detected | not detected | 
2 | CC1=C(C(=O)O)N2C(=O)[C@@H](NC(=O)CCCC(=O)O)[C@H]2SC1 [GL-7-ADCA, glutaryl-desacetoxy-7-aminocephalosporanic acid] | nearly three times more activity | 294% | 
3 | N[C@@H](CCC(=O)O)C(=O)O [Glutamate, glutamate] |  |  | Relative activity (%) of acylase with inhibitor [2]: < 1%
4 | CC(=O)OCC1=C(C(=O)O)N2C(=O)[C@@H](NC(=O)CCCC(=O)O)[C@H]2SC1 [GL-7-ACA, glutaryl-7-aminocephalo-sporanic acid] |  | 100% | 
5 | O=C(O)CCCC(=O)O [Glutaric acid, glutaric acid] |  |  | inhibition of the enzyme activity ([3]; glutaric acid at 0.12%): up to 50%; induction of GL-7-ACA acylase activity ([3]; in ATCC 33634): did not induce; lowest concentration that inhibited the acylase activity ([3]; in ATCC 33634): 0.02%
6 | CC(=O)OCC1=C(C(=O)O)N2C(=O)[C@@H](N)[C@H]2SC1 [7-ACA, 7-Aminocephalosporanic acid] |  |  | inhibitory effect, in words ([2]; compounds used at 20 mM): strongest inhibitory effects
7 | CC(=O)OCC1=C(C(=O)O)N2C(=O)[C@@H](NC(=O)CCC[C@@H](N)C(=O)O)[C@H]2SC1 [Ceph C, cephalosporin C] | No activity was detected | not detected | 
